The first data set in a line: Cytotoxicity in mouse BA/F3 cells after 48 hrs by Cell titre glo-based luminescence assay. Conditions: BaF3, 48 h.
What is called IC50 is the concentration that inhibits the measured activity by half. High values mean a need for much substance, low ones inhibition by little substance. Turning to `COc1cc2ncnc(Nc3cccc(O)c3)c2cc1OC`, the half-maximal inhibitory concentration (IC50) is over 10 µM.

Regarding `COc1cc2ncnc(Nc3c(Cl)ccc(O)c3F)c2cc1OC`, the half-maximal inhibitory concentration (IC50) is over 10 µM.

`COc1cc2ncnc(Nc3cc(F)cc(O)c3C)c2cc1OC` yielded an IC50 of over 10 µM.

The compound `COc1cc2ncnc(Nc3cccc(O)c3Br)c2cc1OC` displayed an IC50 of over 10 µM.

On to `COc1cc2ncnc(Nc3cccc(O)c3C)c2cc1OC`, for which the IC50 was over 10 µM.

For `COc1cc2ncnc(Nc3cccc(O)c3Cl)c2cc1OC`, the IC50 is over 10 µM.

For `COc1cc2ncnc(Nc3c(F)ccc(O)c3F)c2cc1OC`, the half-maximal inhibitory concentration (IC50) is over 10 µM.

`COc1cc2ncnc(Nc3c(F)ccc(O)c3Cl)c2cc1OC` yielded a concentration for half-maximal inhibition (IC50) of over 10 µM.

For the compound `COc1cc2ncnc(Nc3cccc(O)c3O)c2cc1OC`, the concentration for half-maximal inhibition (IC50) is over 10 µM.

As for `COc1cc2ncnc(Nc3cc(O)c(C)cc3F)c2cc1OC`, the 50% inhibitory concentration (IC50) was over 1 µM.

On to `COc1cc2ncnc(Nc3c(F)ccc(O)c3C)c2cc1OC`, for which the concentration for half-maximal inhibition (IC50) is over 10 µM.

The next data set can be described thus: Aqueous solubility of compound by LC-MS/MS analysis. Type of data set: physicochemical.
Settings: not given
In general, solubility refers to the concentration that dissolves in the medium under given conditions. A low value points to little dissolved substance. `COc1cc2ncnc(Nc3c(F)ccc(O)c3C)c2cc1OC` gave a solubility of over 100 µM.
